Results reported in patent US8053460B2, “Indole derivatives having antitumor activity” (Sigma-Tau Industrie Farmaceutiche Riunite S.p.A., priority 2005, dated 2011).
Like-named read-outs stand apart in the source and are kept apart here.

Key:
Type in all cases: cell-based
[1] = tested on: NB4 human promyelocytic leukaemia cells; experiment: Cytotoxicity (sulphorodamine B) on NB4 tumour cells
Protocol: (§1) To test the effects of the compounds on cell growth, NB4 human promyelocytic leukaemia, NCI-H460 non-small cell carcinoma cells and HCT-116 human colon carcinoma cells were used. NB4 and NCI-H460 tumour cells were grown RPMI 1640 containing 10% fetal bovine serum (GIBCO), whereas HCT-116 tumour cells were grown in McCoy's 5A containing 10% fetal bovine serum (GIBCO).
(§2) Tumour cells were seeded in 96-well tissue culture plates (Corning) at approximately 10% confluence and were allowed to attach and recover for at least 24 h. Varying concentrations of the drugs were then added to each well to calculate their IC50 value (the concentration which inhibits the 50% of cell survival). The plates were incubated for 24 h at 37° C. At the end of the treatment, for NB4 tumour cells in suspension, the procedure was performed as follows: medium culture was removed by centrifugation of the plates at 1600×g for 10 min and the surnatant was removed. 250 μl PBS were added, then the plates were centrifuged at 1600×g for 10 min, the surnatant was removed. 200 μl/well of medium culture RPMI 1640 containing 10% FCS were added and the plates were incubated at 37° C. for other 48 h. The plates were centrifuged again at 1600×g for 10 min, the medium culture was removed and 200 μl PBS and 50 μl of cold 80% TCA were added. The plates were incubated on ice for at least 1 h. TCA was removed, the plates were washed 3 times for immersion in distilled-water and dried on paper and at 40° C. for 5 min. Then 200 μl of 0.4% sulphorodamine B in 1% acetic acid were added. The plates were incubated at room temperature for other 30 min. Sulphorodamine B was removed, the plates were washed for immersion in 1% acetic acid for 3 times, then they were dried on paper and at 40° C. for 5 min. Then 200 μl Tris 10 mM were added, the plates were kept under stirring for 20 min. The survival cell was determined as optical density by a Multiskan spectrofluorimeter at 540 nm. For the tumour cells in adhesion (NCI-H460 and HCT-116), the procedure was as above mentioned, except that at the end of the treatment, the plates were washed by remotion of the surnatant and addition of PBS 3 times without centrifugation. Also the last day of the assay, the surnatant was removed without centrifugation.
(§3) The amount of cells killed was calculated as the percentage decrease in sulphorodamine B binding compared with control cultures. The IC50 values (the concentration which inhibits the 50% of cell survival) were calculated with the “ALLFIT” program.

[2] = tested on: HCT-116 human colon carcinoma cells; experiment: Cytotoxicity (sulphorodamine B) on HCT-116 tumour cells; conditions: HCT-116 cells, 24 h treatment then 48 h recovery, read-out: HCT-116 IC50 ± SD
Protocol: as §1, §2, §3

[3] = tested on: NCI-H460 non-small cell carcinoma cells; experiment: Cytotoxicity (sulphorodamine B) on NCI-H460 tumour cells; conditions: Homo sapiens
Protocol: as §1, §2, §3

[4] = Homo sapiens, NB-4, NB4 cells, 24 h treatment then 48 h recovery, sulphorodamine B, read-out: NB4 IC50 ± SD
[5] = NCI-H460 cells, 24 h treatment then 48 h recovery, sulphorodamine B, read-out: NCI-H460 IC50 ± SD
[6] = range stated jointly for NCI-H460 non-small cell lung cancer and HCT-116 colon cancer, read-out: IC50 values on NCI-H460 and HCT-116 (range given)
[7] = Homo sapiens, range stated jointly for NB4, NCI-H460 and HCT-116, minor cytotoxicity, read-out: IC50 values on NB4 or NCI-H460 and HCT-116 (range given)
[8] = NB4 cells, 24 h treatment then 48 h recovery, sulphorodamine B, read-out: NB4 IC50 ± SD

Row | SMILES | IC50 [1, 4] | IC50 [2] | IC50 [3, 5] | IC50 [3, 6] | IC50 [1, 7] | IC50 [1, 8]
1 | Cc1ccc2[nH]cc(C(CCCCCC(=O)NO)c3c[nH]c4ccc(C)cc34)c2c1 [ST3044, 7,7-Bis-(5-methyl-1H-indol-3-yl)-heptanoic acid hydroxyamide] | 150 nM | 270 ± 10 nM | 510 ± 100 nM | 270 to 700 nM | – | –
2 | O=C(CCCCCc1c[nH]c2ccccc12)NO [ST2995, N-hydroxy-6-(1H-indol-3-yl)hexanamide] | 8800 ± 500 nM | – | 22000 ± 1700 nM | – | 8800 to 88800 nM | –
3 | COc1cccc2c(C(CCCCCC(=O)NO)c3c[nH]c4c(OC)cccc34)c[nH]c12 [ST3043, 7,7-Bis-(7-methoxy-1H-indol-3-yl)-heptanoic acid hydroxyamide] | 400 to 2300 nM | 410 ± 30 nM | 550 ± 30 nM | 270 to 700 nM | – | 800 ± 10 nM
4 | O=C(O)CCCCCC(c1c[nH]c2ccccc12)c1c[nH]c2ccccc12 [ST3127, 7,7-Bis-(1H-indol-3-yl)-heptanoic acid] | > 20000 nM | > 20000 nM | > 20000 nM | – | 8800 to 88800 nM | –
5 | O=C(C=Cc1ccc(C(c2c[nH]c3ccccc23)c2c[nH]c3ccccc23)cc1)NO [ST2887, 3-{4-[Bis-(1H-indol-3-yl)-methyl]-phenyl}-N-hydroxy-acrylamide] | 400 to 2300 nM | 3900 ± 500 nM | 2600 ± 300 nM | 600 to 5800 nM | – | 600 ± 10 nM
6 | O=C(CCCCC(c1c[nH]c2ccccc12)c1c[nH]c2ccccc12)NO [ST2754, 6,6-Bis-(1H-indol-3-yl)-hexanoic acid hydroxyamide] | – | 5800 ± 200 nM | 5200 ± 300 nM | 600 to 5800 nM | – | –
7 | O=C(CCCCCC(c1c[nH]c2ccccc12)c1c[nH]c2ccccc12)NO [ST2741, 7,7-Bis-(1H-indol-3-yl)-heptanoic acid hydroxyamide] | 400 to 2300 nM | 600 ± 20 nM | 1200 ± 100 nM | 600 to 5800 nM | – | 600 ± 10 nM
8 | O=C(CCC(c1c[nH]c2ccccc12)c1c[nH]c2ccccc12)NO [ST2408, N-Hydroxy-4,4-bis-(1H-indol-3-yl)-butyramide] | 14600 ± 600 nM | – | 25900 ± 300 nM | – | 8800 to 88800 nM | –
9 | O=C(CCCCCC(C1C=Nc2ccc(CN3CCOCC3)cc21)C1C=Nc2ccc(CN3CCOCC3)cc21)NO (centres unmarked) [ST3307, 7,7-Bis-(5-morpholin-4-ylmethyl-3H-indol-3-yl)-heptanoic acid hydroxyamide] | 400 to 2300 nM | – | 1100 ± 100 nM | 600 to 5800 nM | – | 420 ± 20 nM
10 | O=C(CCCCCC(c1cc2ccccc2[nH]1)c1c[nH]c2ccccc12)NO (centres unmarked) [ST3292, 7-(1H-Indol-3-yl)-7-(1H-indol-2-yl)-heptanoic acid hydroxyamide] | 400 to 2300 nM | – | 820 ± 70 nM | 600 to 5800 nM | – | 670 ± 10 nM
11 | O=C(CCCCCC(c1c[nH]c2cccc(F)c12)c1c[nH]c2cccc(F)c12)NO [ST3052, 7,7-Bis-(4-fluoro-1H-indol-3-yl)-heptanoic acid hydroxyamide] | 400 to 2300 nM | 400 ± 100 nM | 700 ± 90 nM | 270 to 700 nM | – | 600 ± 90 nM
12 | O=C(CCCCCCC(c1c[nH]c2ccccc12)c1c[nH]c2ccccc12)NO [ST2889, 8,8-Bis-(1H-indol-3-yl)-octanoic acid hydroxyamide] | – | 3500 ± 200 nM | 2700 ± 200 nM | 600 to 5800 nM | – | –
13 | O=C(CCCC(c1c[nH]c2ccccc12)c1c[nH]c2ccccc12)NO [ST2743, 5,5-Bis-(1H-indol-3-yl)-pentanoic acid hydroxyamide] | – | – | 88800 ± 2800 nM | – | 8800 to 88800 nM | –
